The values below come from patent US7294651B2 (priority 2001, dated 2007).

“And” between values parts separate entries of the source, which are not always exact repeats. Identical values can stand only once.

One assay deals with S. aureus (MN8). The class given is cell-based.
The test system of another assay is TSST-1. The class given is cell-based, S. aureus. Set-up: ng TSST-1 per CFU: scale not given here.

On to myreth-3-myristate [Cetiol], for which, in the assay with S. aureus (MN8), the “CFU/mL × 10^8” value was 4.2 CFU/mL × 10^8 and 5.9 CFU/mL × 10^8 and 5.0 CFU/mL × 10^8. Moreover, in the assay on TSST-1, the “ng TSST-1 per CFU” value is 371 and 196 and 200; the “ng TSST-1 per mL” value is 1556 ng TSST-1 per mL and 1147 ng TSST-1 per mL and 989 ng TSST-1 per mL.

Take `CC(=O)/C=C/C1=C(C)CCCC1(C)C` [Beta-ionone]: in the assay with S. aureus (MN8), the CFU/mL was 1.8E+08 CFU/mL and the “Optical Density” value came to 0.688. Moreover, in the assay on TSST-1, the “Reduction of Toxin %” value stood at 100% and the “ng TSST-1 per OD Unit” value is reported as “none”.

`CC1CCC(C(C)C)C(O)C1` (centres unmarked) [Menthol, menthol]: in the assay on S. aureus (MN8), the “effect on the growth of S. aureus cells” value is on record as “minimal, if any, effect”.
